Converted amounts (≈) assume the structure as drawn.
Assays:
B16 = assay: Cytotoxicity against mouse B16 cells by MTT assay; type: functional, cell-based
HeLa = assay: Cytotoxicity against human HeLa cells by MTT assay; type: functional, cell-based
A549 = assay: Cytotoxicity against human A549 cells by MTT assay; type: functional, cell-based
[1] = Cytotoxicity against rat IEC-6 cells by MTT assay; type: cell-based
ACHN = assay: Cytotoxicity against human ACHN cells by MTT assay; type: functional, cell-based

| Compound | IC50 (B16) | IC50 (HeLa) | IC50 (A549) | IC50 [1] | IC50 (ACHN) |
| --- | --- | --- | --- | --- | --- |
| C=C1CC[C@@H]2[C@](C)(CO)[C@H](O)CC[C@@]2(C)[C@@H]1/C=C/C1=CCOC1=O | 25.2 µg/mL (≈ 75.7 µM) | 149 µg/mL (≈ 448 µM) | 117 µg/mL (≈ 353 µM) | 169 µg/mL (≈ 509 µM) | 328 µg/mL (≈ 986 µM) |
| C=C1CC[C@@H]2[C@]3(C)CO[C@@H](c4ccccc4)O[C@@H]3CC[C@@]2(C)[C@@H]1C/C=C1/C(=O)OC[C@H]1O | 9.54 µg/mL (≈ 21.8 µM) | 3.8 µg/mL (≈ 8.66 µM) | 4.07 µg/mL (≈ 9.28 µM) | 19.2 µg/mL (≈ 43.8 µM) | 4.78 µg/mL (≈ 10.9 µM) |
| C[C@@H]1OC[C@@]2(C)[C@H]3CC[C@@]4(CO4)[C@@H](/C=C/C4=CCOC4=O)[C@]3(C)CC[C@H]2O1 | 44.1 µg/mL (≈ 118 µM) | 7.78 µg/mL (≈ 20.8 µM) | 18.2 µg/mL (≈ 48.6 µM) | 35.1 µg/mL (≈ 93.6 µM) | 57.3 µg/mL (≈ 153 µM) |
| C=C1CC[C@@H]2[C@]3(C)CO[C@@H](CCCCC)O[C@@H]3CC[C@@]2(C)[C@@H]1C/C=C1/C(=O)OC[C@H]1O | 10 µg/mL (≈ 23.1 µM) | 8.51 µg/mL (≈ 19.7 µM) | 7.07 µg/mL (≈ 16.3 µM) | 22.4 µg/mL (≈ 51.7 µM) | 9.54 µg/mL (≈ 22.1 µM) |
| C=C1CC[C@@H]2[C@]3(C)CO[C@@H](C)O[C@@H]3CC[C@@]2(C)[C@@H]1C/C=C1/C(=O)OC[C@H]1O | 4.78 µg/mL (≈ 12.7 µM) | 4.27 µg/mL (≈ 11.3 µM) | 2.43 µg/mL (≈ 6.45 µM) | 6.34 µg/mL (≈ 16.8 µM) | 2.47 µg/mL (≈ 6.56 µM) |
| C=C1CC[C@@H]2[C@]3(C)CO[C@@H](C)O[C@@H]3CC[C@@]2(C)[C@@H]1/C=C/C1=CCOC1=O | 62 µg/mL (≈ 173 µM) | 56.2 µg/mL (≈ 157 µM) | 88.7 µg/mL (≈ 247 µM) | 94.3 µg/mL (≈ 263 µM) | 125 µg/mL (≈ 349 µM) |
| C=C1CC[C@@H]2[C@]3(C)CO[C@@H](C)O[C@@H]3CC[C@@]2(C)[C@@H]1C/C=C1\C=COC1=O | 43 µg/mL (≈ 120 µM) | 48.6 µg/mL (≈ 135 µM) | 46.9 µg/mL (≈ 131 µM) | 40 µg/mL (≈ 112 µM) | 60.6 µg/mL (≈ 169 µM) |
| C=C1CC[C@@H]2[C@]3(C)CO[C@@H](CCC)O[C@@H]3CC[C@@]2(C)[C@@H]1C/C=C1/C(=O)OC[C@H]1O | 44.4 µg/mL (≈ 110 µM) | 27 µg/mL (≈ 66.8 µM) | 23 µg/mL (≈ 56.8 µM) | 14.1 µg/mL (≈ 35 µM) | 32.9 µg/mL (≈ 81.4 µM) |
| C=C1CC[C@@H]2[C@]3(C)CO[C@@H](C)O[C@@H]3CC[C@@]2(C)[C@@H]1C/C=C1/C(=O)OC[C@H]1OC(C)=O | 4.01 µg/mL (≈ 9.58 µM) | 4.43 µg/mL (≈ 10.6 µM) | 3.34 µg/mL (≈ 7.98 µM) | 7.23 µg/mL (≈ 17.3 µM) | 8.54 µg/mL (≈ 20.4 µM) |
| CC(=O)O[C@@H]1COC(=O)/C1=C/C[C@@H]1[C@@]2(CC[C@@H]3[C@]4(C)CO[C@@H](C)O[C@@H]4CC[C@]31C)CO2 | 6.98 µg/mL (≈ 16.1 µM) | 7.12 µg/mL (≈ 16.4 µM) | 4.37 µg/mL (≈ 10.1 µM) | 14.5 µg/mL (≈ 33.4 µM) | 5.58 µg/mL (≈ 12.8 µM) |
| C[C@@H]1OC[C@@]2(C)[C@H]3CC[C@@]4(CO4)[C@@H](C/C=C4/C(=O)OC[C@H]4O)[C@]3(C)CC[C@H]2O1 | 6.34 µg/mL (≈ 16.2 µM) | 6.97 µg/mL (≈ 17.8 µM) | 4.34 µg/mL (≈ 11.1 µM) | 8.76 µg/mL (≈ 22.3 µM) | 4.49 µg/mL (≈ 11.4 µM) |
| C=C1CC[C@@H]2[C@]3(C)CO[C@@H](CC)O[C@@H]3CC[C@@]2(C)[C@@H]1C/C=C1/C(=O)OC[C@H]1O | 10.2 µg/mL (≈ 26.2 µM) | 8.91 µg/mL (≈ 22.8 µM) | 8.12 µg/mL (≈ 20.8 µM) | 14.2 µg/mL (≈ 36.4 µM) | 14.7 µg/mL (≈ 37.6 µM) |
| C=C1CC[C@@H]2[C@]3(C)CO[C@@H](CCCC)O[C@@H]3CC[C@@]2(C)[C@@H]1C/C=C1/C(=O)OC[C@H]1O | 21.1 µg/mL (≈ 50.4 µM) | 14.1 µg/mL (≈ 33.6 µM) | 33.5 µg/mL (≈ 80.1 µM) | 31.2 µg/mL (≈ 74.6 µM) | 15.3 µg/mL (≈ 36.7 µM) |
| C=C1CC[C@@H]2[C@](C)(CO)[C@H](O)CC[C@@]2(C)[C@@H]1C/C=C1/C(=O)OC[C@H]1O [ANDROGRAPHOLIDE] | 7.54 µg/mL (≈ 21.5 µM) | 10.4 µg/mL (≈ 29.7 µM) | 9.71 µg/mL (≈ 27.7 µM) | 8.26 µg/mL (≈ 23.6 µM) | 3.03 µg/mL (≈ 8.65 µM) |
| COc1cccc2c1C(=O)c1c(O)c3c(c(O)c1C2=O)C[C@@](O)(C(=O)CO)C[C@@H]3O[C@H]1C[C@H](N)[C@H](O)[C@H](C)O1 [DOXORUBICIN] | 3.16 µg/mL (≈ 5.81 µM) | 1.28 µg/mL (≈ 2.35 µM) |  | 2.6 µg/mL (≈ 4.78 µM) | 2.08 µg/mL (≈ 3.83 µM) |

Reference: ChEMBL document CHEMBL3739374, “Synthesis and evaluation of anticancer activity of novel andrographolide derivatives” (Medchemcomm, 2015)
